According to paper doi:10.1101/2024.12.09.627564, “Cannabinoid inhibition of mechanosensitive K^+ channels” (bioRxiv, 2024):

Tests used:
[1] = molecular target: T1, Homo sapiens TREK-2 (Homo sapiens, UniProt P57789); test: Excised inside-out patch recording of TREK-2 from Xenopus oocytes; assay type: biochemical
T1 construct: TREK-2 amino acids 1–538; expressed in transfected cells; host or cells: Xenopus laevis oocytes, cRNA injection
T1 sequence (P57789 1-538): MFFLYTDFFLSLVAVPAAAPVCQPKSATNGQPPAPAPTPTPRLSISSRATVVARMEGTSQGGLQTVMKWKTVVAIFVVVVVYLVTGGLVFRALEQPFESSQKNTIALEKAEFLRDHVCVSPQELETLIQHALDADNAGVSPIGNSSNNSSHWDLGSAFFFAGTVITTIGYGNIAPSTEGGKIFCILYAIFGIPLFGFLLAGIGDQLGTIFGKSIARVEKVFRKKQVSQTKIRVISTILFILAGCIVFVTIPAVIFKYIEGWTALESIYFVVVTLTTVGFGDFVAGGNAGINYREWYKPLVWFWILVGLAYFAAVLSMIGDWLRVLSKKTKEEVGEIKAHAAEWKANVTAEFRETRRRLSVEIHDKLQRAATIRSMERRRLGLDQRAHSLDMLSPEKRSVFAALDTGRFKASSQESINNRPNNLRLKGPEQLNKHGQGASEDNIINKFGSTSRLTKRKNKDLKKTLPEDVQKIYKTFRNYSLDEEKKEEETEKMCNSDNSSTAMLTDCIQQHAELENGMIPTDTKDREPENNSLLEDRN
Description: (§1) For patch clamp recording from Xenopus oocytes, genes encoding full-length Homo sapiens TRAAK (UniProt Q9NYG8–2), TREK-1 (UniProt O95069), and TREK-2 (UniProt P57789) were codon optimized for eukaryotic expression, synthesized (Genewiz), and cloned into a modified pGEMHE vector using Xho1 and EcoR1 restriction sites. The transcribed messages encode H. sapiens TRAAK amino acids 1–393, TREK-1 amino acids 1–426, or TREK-2 amino acids 1–538 with an additional three amino acids (SNS) at the C terminus. TRAAK mutants were introduced by polymerase chain reaction (PCR). Linearized DNA was transcribed in vitro using T7 polymerase. Complementary RNA (0.1 to 10 ng for TRAAK, TREK-1, TREK-2, and mutants) in 50 nL H2O was injected into Xenopus laevis oocytes extracted from anesthetized frogs. Currents were recorded at 25 °C from inside-out patches excised from oocytes 1 to 5 d after RNA injection. […]
(§2) Patches were evaluated with voltage-step protocols to confirm TRAAK expression and minimal non-specific leak based on reversal potential. Currents were recorded using an Axopatch 200B amplifier (Molecular Devices) at a bandwidth of 1 kHz and digitized with an Digidata 1550B (Molecular Devices) at 100–500 kHz using pClamp10.7 software. […] In an effort to minimize variability associated with differences in resting membrane tension, we targeted patches with low basal curvature and low resting channel activity and ensured measured pressure difference across the patch was as close to zero as possible at rest to prevent mechanical activation of channels. Data were analyzed using Clampfit 10.7, Excel, and Graphpad Prism software. […]
To avoid cannabinoid absorption to plastic, cannabinoid solutions were made in glass vials and diluted by weight, perfusion was performed using glass tubing pulled from borosilicate glass Pasteur pipettes (Fisherbrand, Cat# 13–678-20C), and recordings were performed in glass chambers. Channel activity was continuously recorded during perfusion steps. […]

[2] = molecular target: T2, TRAAKG165E (Homo sapiens, UniProt Q9NYG8, G139E); test: Excised patch recording of TRAAK mutant G165E; assay type: biochemical
T2 construct: The transcribed messages encode H. sapiens TRAAK amino acids 1–393; expressed in transfected cells; host or cells: Xenopus laevis oocytes, cRNA injection
T2 sequence (Q9NYG8 1-393 G139E): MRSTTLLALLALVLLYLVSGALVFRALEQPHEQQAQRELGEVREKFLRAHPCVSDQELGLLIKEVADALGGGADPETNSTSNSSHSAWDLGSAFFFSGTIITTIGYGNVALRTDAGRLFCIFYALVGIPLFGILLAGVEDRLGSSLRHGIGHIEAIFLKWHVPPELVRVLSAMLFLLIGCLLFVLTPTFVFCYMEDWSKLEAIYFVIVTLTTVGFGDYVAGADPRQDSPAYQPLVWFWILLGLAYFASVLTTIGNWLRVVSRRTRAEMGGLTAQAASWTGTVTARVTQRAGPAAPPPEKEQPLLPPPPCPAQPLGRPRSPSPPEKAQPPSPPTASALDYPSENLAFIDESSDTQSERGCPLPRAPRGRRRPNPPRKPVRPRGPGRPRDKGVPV
Description: as §1, with “Complementary RNA (0.1 to 10 ng for TRAAK, TREK-1, TREK-2, and mutants) in 50 nL H2O was injected into Xenopus laevis oocytes extracted from anesthetized frogs.” left out
as §2, with “channels.” for “channels. Data were analyzed using Clampfit 10.7, Excel, and Graphpad Prism software.”

C=C(C)[C@@H]1CCC(C)=C[C@H]1c1c(O)cc(CCCCC)cc1O [CBD, Cannabidiol]
IC50 [1]: 1.3 µM | Hill-coefficient ([1]; TREK-2 dose-response): 3.8 | fold less sensitive than TRAAK ([1]; TREK-2 vs TRAAK): ~ 10 fold | IC50 [2]: 0.162 ± 0.008 µM
